Laboratory results as given in PMC4832832 (Archiv Der Pharmazie, 2015).
Entries after “also recorded” stand apart in the source; their conditions may differ. Like-named read-outs stand apart in the source and are kept apart here.

Columns and labels:
[1] = system: Parainfluenza‐3 virus; assay: organism not typed; format: cell-based
[2] = system: Reovirus‐1; assay: organism not typed; format: cell-based
[3] = system: Sindbis virus; assay: microbe, parasite or virus in culture; format: cell-based
[4] = system: Punta Toro virus; assay: microbe, parasite or virus in culture; format: cell-based
[5] = system: HeLa cells; details: HeLa cell cultures
[6] = system: Vero cells; details: Vero cell cultures
[7] = system: Vesicular stomatitis virus; format: cell-based; details: for EC50: read-out: EC50 Vesicular stomatitis virus
[8] = system: Coxsackie virus B4; format: cell-based; details: for EC50: read-out: EC50 Coxsackie virus B4, reduce virus-induced cytopathogenicity by 50%
[9] = system: Respiratory syncytial virus; format: cell-based; details: for inhibitory activity against respiratory syncytial virus (in words): HeLa cells
[10] = system: Coxsackie virus B4; format: cell-based; details: Vero cell cultures
[11] = system: Varicella-zoster virus (VZV) TK+(Oka strain); format: cell-based; details: for activity against TK+ VZV strain (in words): HEL cells; for activity against varicella‐zoster virus (in words): strain not given
[12] = system: Varicella-zoster virus (VZV) TK-(Oka strain); format: cell-based; details: HEL cells
[13] = microscopically detectable alteration of normal cell morphology
[14] = HeLa cell cultures, unit of the DS-10.000 line
[15] = Vero cell cultures, unit of the DS-10.000 line

NC(=O)c1ncn([C@@H]2O[C@H](CO)[C@@H](O)[C@H]2O)n1 [Ribavirin, ribavirin]
EC50 ([1]; Vero, read-out: EC50 Parainfluenza‐3 virus): 85 µM | EC50 ([2]; Vero, read-out: EC50 Reovirus‐1): > 250 µM | EC50 ([3]; Sindbis virus, Vero, read-out: EC50 Sindbis virus): > 250 µM | EC50 ([4]; Punta Toro virus, Vero, read-out: EC50 Punta Toro virus): 112 µM | Minimum cytotoxic concentration [5, 13]: >250 µM | Minimum cytotoxic concentration [6, 13]: >250 µM

Diethyl [(4‐(1‐(2,3,5‐tri‐O‐benzoyl‐β‐D‐ribofuranos‐1‐yl)‐1,2,3‐triazol‐4‐yl)phenyl)(2‐bromophenylamino)methyl]phosphonate [Compound 4c]
EC50 [7]: > 100 µM | EC50 ([8]; HeLa cell cultures): > 100 µM | inhibitory activity against respiratory syncytial virus (in words) [9]: slight inhibition; also recorded: modest inhibitory activity | Minimum cytotoxic concentration [5, 13]: >100 µM

Diethyl [(4‐(1‐(2,3,5‐tri‐O‐benzoyl‐β‐D‐ribofuranos‐1‐yl)‐1,2,3‐triazol‐4‐yl)phenyl)(2‐chlorophenylamino)methyl]phosphonate [Compound 4b]
EC50 [7]: > 100 µM | EC50 ([8]; HeLa cell cultures): > 100 µM | inhibitory activity against respiratory syncytial virus (in words) [9]: slight inhibition; also recorded: modest inhibitory activity | Minimum cytotoxic concentration [5, 13]: >100 µM

Diethyl [(4‐(1‐(2,3,5‐tri‐O‐benzoyl‐β‐D‐ribofuranos‐1‐yl)‐1,2,3‐triazol‐4‐yl)phenyl)(4‐bromophenylamino)methyl]phosphonate [Compound 4d]
EC50 [7]: > 100 µM | EC50 ([8]; HeLa cell cultures): > 100 µM | Minimum cytotoxic concentration [5, 13]: >100 µM

Diethyl [(4‐(1‐(2,3,5‐tri‐O‐benzoyl‐β‐D‐ribofuranos‐1‐yl)‐1,2,3‐triazol‐4‐yl)phenyl)(benzylamino)methyl]phosphonate [Compound 4h]
activity against Coxsackie virus B4 (in words) ([8]; HeLa cells): no activity | activity against Coxsackie virus B4 (in words) [10]: some activity; also recorded: modest inhibitory activity | EC50 ([10]; read-out: EC50 Coxsackie virus B4, reduce virus-induced cytopathogenicity by 50%): 20 µM | Minimum cytotoxic concentration [6, 13]: >100 µM

Diethyl [(4‐(1‐(β‐D‐ribofuranos‐1‐yl)‐1,2,3‐triazol‐4‐yl)phenyl)(2‐bromophenylamino)methyl]phosphonate [Compound 5c]
activity against TK+ VZV strain (in words) [11]: weak activity | activity against varicella‐zoster virus (in words) [11]: modest activity | activity against TK− VZV strain (in words) [12]: weak activity

Diethyl [(4‐(1‐(β‐D‐ribofuranos‐1‐yl)‐1,2,3‐triazol‐4‐yl)phenyl)(2‐naphthalenylamino)methyl]phosphonate [Compound 5g]
activity against TK+ VZV strain (in words) [11]: weak activity | activity against varicella‐zoster virus (in words) [11]: modest activity | activity against TK− VZV strain (in words) [12]: weak activity

Diethyl [(4‐(1‐(β‐D‐ribofuranos‐1‐yl)‐1,2,3‐triazol‐4‐yl)phenyl)(4‐chloro‐2‐methylphenylamino)methyl]phosphonate [Compound 5f]
activity against TK+ VZV strain (in words) [11]: weak activity | activity against varicella‐zoster virus (in words) [11]: modest activity | activity against TK− VZV strain (in words) [12]: weak activity

dextran sulfate [DS‐10.000, reference compound]
EC50 Vesicular stomatitis virus [7]: 12 µg/mL | EC50 Coxsackie virus B4 [8, 14]: >100 µg/mL | EC50 Respiratory syncytial virus [9, 14]: 1.3 ± 0.7 µg/mL | EC50 Parainfluenza‐3 virus [1, 15]: >100 µg/mL | EC50 Reovirus‐1 [2, 15]: >100 µg/mL | EC50 Sindbis virus [3, 15]: 8.9 µg/mL | EC50 Coxsackie virus B4 ([10]; unit of the DS-10.000 line): >100 µg/mL | EC50 Punta Toro virus [4, 15]: 8.9 µg/mL | Minimum cytotoxic concentration ([5]; unit of the DS-10.000 line): >100 µg/mL | Minimum cytotoxic concentration ([6]; unit of the DS-10.000 line): >100 µg/mL
